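Dose response: 5 concentrations. Exposure: 48 h. Format: 96-well plates. Endpoint: linear interpolation; highest concentration if not reached. Here, GI50 denotes the concentration required for 50% inhibition of growth.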 Calls of active or inactive are those of the source. No stated cut-off is given here; in the data, active = GI50 up to about 1.1 µM and inactive = higher.
Columns and labels:
Assay in all cases: NCI anticancer screen, dose series, 48 h
NCI-H522 = test system: NCI-H522
OVCAR-4 = test system: OVCAR-4
KM12 = test system: KM12
UACC-257 = test system: UACC-257
SK-MEL-28 = test system: SK-MEL-28
HOP-92 = test system: HOP-92
SW-620 = test system: SW-620
UO-31 = test system: UO-31
A498 = test system: A498
HOP-62 = test system: HOP-62
SK-OV-3 = test system: SK-OV-3
NCI-H23 = test system: NCI-H23
EKVX = test system: EKVX
HCT-116 = test system: HCT-116
NCI-H226 = test system: NCI-H226
MOLT-4 = test system: MOLT-4
SF-295 = test system: SF-295
HCT-15 = test system: HCT-15
SK-MEL-5 = test system: SK-MEL-5
NCI/ADR-RES = test system: NCI/ADR-RES

Cc1[nH]c(=O)[nH]c(=O)c1C(=O)N(CCO)Cc1ccccc1
GI50 (NCI-H522): > 100 µM (inactive) | GI50 (OVCAR-4): 29.3 µM (inactive) | GI50 (KM12): > 100 µM (inactive) | GI50 (UACC-257): 34.7 µM (inactive) | GI50 (SK-MEL-28): > 100 µM (inactive) | GI50 (HOP-92): 27 µM (inactive) | GI50 (SW-620): > 100 µM (inactive) | GI50 (UO-31): > 100 µM (inactive) | GI50 (A498): > 100 µM (inactive) | GI50 (HOP-62): > 100 µM (inactive) | GI50 (SK-OV-3): > 100 µM (inactive) | GI50 (NCI-H23): 33 µM (inactive) | GI50 (EKVX): > 100 µM (inactive) | GI50 (HCT-116): > 100 µM (inactive) | GI50 (NCI-H226): 17 µM (inactive) | GI50 (MOLT-4): > 100 µM (inactive) | GI50 (SF-295): 35.5 µM (inactive) | GI50 (HCT-15): > 100 µM

CCOC(=O)C(O)(NC(=O)c1ccc(F)cc1)C(F)(F)F (stereo unspecified)
GI50 (NCI-H522): > 100 µM (inactive) | GI50 (OVCAR-4): > 100 µM (inactive) | GI50 (KM12): > 100 µM (inactive) | GI50 (UACC-257): > 100 µM (inactive) | GI50 (SK-MEL-28): > 100 µM (inactive) | GI50 (HOP-92): > 100 µM (inactive) | GI50 (SW-620): > 100 µM (inactive) | GI50 (UO-31): > 100 µM (inactive) | GI50 (HOP-62): > 100 µM (inactive) | GI50 (SK-OV-3): > 100 µM (inactive) | GI50 (SK-MEL-5): > 100 µM (inactive) | GI50 (NCI-H23): > 100 µM (inactive) | GI50 (EKVX): > 100 µM (inactive) | GI50 (HCT-116): > 100 µM (inactive) | GI50 (NCI-H226): > 100 µM (inactive) | GI50 (MOLT-4): > 100 µM (inactive) | GI50 (SF-295): > 100 µM (inactive) | GI50 (NCI/ADR-RES): > 100 µM (inactive) | GI50 (HCT-15): > 100 µM

O=C(O)C1CCCCN1C(=O)c1ccccc1 (stereo unspecified)
GI50 (OVCAR-4): > 100 µM (inactive) | GI50 (KM12): > 100 µM (inactive) | GI50 (UACC-257): > 100 µM (inactive) | GI50 (SK-MEL-28): > 100 µM (inactive) | GI50 (HOP-92): > 100 µM (inactive) | GI50 (SW-620): > 100 µM (inactive) | GI50 (UO-31): > 100 µM (inactive) | GI50 (A498): > 100 µM (inactive) | GI50 (HOP-62): > 100 µM (inactive) | GI50 (SK-OV-3): > 100 µM (inactive) | GI50 (SK-MEL-5): > 100 µM (inactive) | GI50 (NCI-H23): > 100 µM (inactive) | GI50 (EKVX): > 100 µM (inactive) | GI50 (HCT-116): > 100 µM (inactive) | GI50 (MOLT-4): > 100 µM (inactive) | GI50 (SF-295): > 100 µM (inactive) | GI50 (HCT-15): > 100 µM

COc1cc(C(C)O)c(S(=O)(=O)CC(C)O)nn1 (stereo unspecified)
GI50 (NCI-H522): > 100 µM (inactive) | GI50 (OVCAR-4): > 100 µM (inactive) | GI50 (KM12): > 100 µM (inactive) | GI50 (UACC-257): > 100 µM (inactive) | GI50 (SK-MEL-28): > 100 µM (inactive) | GI50 (HOP-92): > 100 µM (inactive) | GI50 (SW-620): > 100 µM (inactive) | GI50 (UO-31): > 100 µM (inactive) | GI50 (A498): > 100 µM (inactive) | GI50 (SK-OV-3): > 100 µM (inactive) | GI50 (SK-MEL-5): > 100 µM (inactive) | GI50 (NCI-H23): > 100 µM (inactive) | GI50 (EKVX): 75.5 µM (inactive) | GI50 (HCT-116): > 100 µM (inactive) | GI50 (NCI-H226): 64.1 µM (inactive) | GI50 (MOLT-4): 77.4 µM (inactive) | GI50 (SF-295): > 100 µM (inactive) | GI50 (NCI/ADR-RES): > 100 µM (inactive) | GI50 (HCT-15): > 100 µM

CC1=C[C@]2(CC(C)C3C(CC4(C)C5CCC6C(C)(C)C(=O)CC[C@@]67C[C@@]57CC[C@]34C)O2)OC1=O (stereo partly specified)
GI50 (OVCAR-4): 19 µM (inactive) | GI50 (KM12): 18.9 µM (inactive) | GI50 (UACC-257): 8.63 µM (inactive) | GI50 (SK-MEL-28): 18.6 µM (inactive) | GI50 (HOP-92): 18.1 µM (inactive) | GI50 (SW-620): 12.6 µM (inactive) | GI50 (A498): 23.7 µM (inactive) | GI50 (SK-MEL-5): 2.65 µM (inactive) | GI50 (NCI-H23): 7.64 µM (inactive) | GI50 (EKVX): 44.8 µM (inactive) | GI50 (HCT-116): 3.33 µM (inactive) | GI50 (NCI-H226): 1.88 µM (inactive) | GI50 (MOLT-4): 10.7 µM (inactive) | GI50 (SF-295): 25.3 µM (inactive) | GI50 (HCT-15): 7.64 µM

CCOC(C)OC1CC(n2cc(C)c(=O)[nH]c2=O)OC1CO (stereo unspecified)
GI50 (NCI-H522): > 100 µM (inactive) | GI50 (OVCAR-4): > 100 µM (inactive) | GI50 (KM12): > 100 µM (inactive) | GI50 (UACC-257): > 100 µM (inactive) | GI50 (SK-MEL-28): > 100 µM (inactive) | GI50 (HOP-92): > 100 µM (inactive) | GI50 (SW-620): > 100 µM (inactive) | GI50 (UO-31): > 100 µM (inactive) | GI50 (A498): > 100 µM (inactive) | GI50 (HOP-62): > 100 µM (inactive) | GI50 (SK-OV-3): > 100 µM (inactive) | GI50 (NCI-H23): > 100 µM (inactive) | GI50 (EKVX): > 100 µM (inactive) | GI50 (HCT-116): > 100 µM (inactive) | GI50 (NCI-H226): > 100 µM (inactive) | GI50 (MOLT-4): > 100 µM (inactive) | GI50 (SF-295): > 100 µM (inactive) | GI50 (HCT-15): > 100 µM
